Read-outs that look alike come from different tables or passages of the source.
Assays:
Assay in all cases: cell-based
[1] = biological target: human CB2 receptor (Homo sapiens, UniProt P34972); type: cell-based
[2] = biological target: human CB1 receptor (Homo sapiens, UniProt P21554); settings: for inverse agonist mark, human CB1 receptor: asterisk at the compound number
[3] = biological target: T1, rat CB2 receptor (Rattus norvegicus, UniProt Q9QZN9); type: cell-based
T1 sequence (Q9QZN9 1-360): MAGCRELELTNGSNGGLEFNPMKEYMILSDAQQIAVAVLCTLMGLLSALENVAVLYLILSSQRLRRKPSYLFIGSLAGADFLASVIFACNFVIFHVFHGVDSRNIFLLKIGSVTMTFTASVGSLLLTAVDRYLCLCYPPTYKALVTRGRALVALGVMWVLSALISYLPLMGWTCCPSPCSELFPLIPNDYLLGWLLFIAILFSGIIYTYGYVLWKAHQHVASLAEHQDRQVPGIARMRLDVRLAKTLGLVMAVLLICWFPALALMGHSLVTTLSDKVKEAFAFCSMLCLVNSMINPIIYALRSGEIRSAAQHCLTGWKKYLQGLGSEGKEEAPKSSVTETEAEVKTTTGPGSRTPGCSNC

[4] = change in intracellular cAMP, CHO-K1 hCB2 cells, class AR, read-out: EC50 values for human CB2 receptor

Chain of human CB2 receptor (P34972 whole entry): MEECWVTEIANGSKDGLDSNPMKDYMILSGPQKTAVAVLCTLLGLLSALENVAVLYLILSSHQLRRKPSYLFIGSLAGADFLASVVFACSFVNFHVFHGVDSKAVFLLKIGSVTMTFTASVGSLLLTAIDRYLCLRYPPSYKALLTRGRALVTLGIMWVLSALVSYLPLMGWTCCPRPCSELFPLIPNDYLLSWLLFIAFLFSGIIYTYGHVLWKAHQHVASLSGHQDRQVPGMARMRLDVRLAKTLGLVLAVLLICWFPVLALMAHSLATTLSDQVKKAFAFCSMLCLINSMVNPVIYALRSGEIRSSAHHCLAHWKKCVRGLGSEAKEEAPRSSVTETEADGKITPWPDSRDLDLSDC
Chain of human CB1 receptor (P21554 whole entry): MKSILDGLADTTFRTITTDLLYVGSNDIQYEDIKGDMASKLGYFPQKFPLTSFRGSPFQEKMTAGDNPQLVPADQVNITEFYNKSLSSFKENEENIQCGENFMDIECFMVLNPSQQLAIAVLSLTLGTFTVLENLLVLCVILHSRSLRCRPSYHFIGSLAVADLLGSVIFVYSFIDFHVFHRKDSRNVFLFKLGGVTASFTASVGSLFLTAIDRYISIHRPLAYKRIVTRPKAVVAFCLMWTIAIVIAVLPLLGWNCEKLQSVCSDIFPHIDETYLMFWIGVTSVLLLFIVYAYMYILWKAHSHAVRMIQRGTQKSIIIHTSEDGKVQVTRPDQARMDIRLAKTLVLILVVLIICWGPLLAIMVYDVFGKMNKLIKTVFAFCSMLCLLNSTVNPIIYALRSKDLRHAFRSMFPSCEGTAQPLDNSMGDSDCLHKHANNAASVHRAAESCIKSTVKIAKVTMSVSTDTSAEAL

For `O=C(NCCO)c1cnc2c(c1)N(S(=O)(=O)c1ccc(Cl)cc1F)CCO2` [Example 115, 1-(4-chloro-2-fluorophenylsulfonyl)-N-(2-hydroxyethyl)-2,3-dihydro-1H-pyrido[2,3-b][1,4]oxazine-7-carboxamide], the EC50 [1, 4] was over 30 µM and the EC50 [2] was over 30 µM.
Molecule `COCCCNC(=O)c1cnc2c(c1)N(S(=O)(=O)c1cccnc1)CCO2` [Example 19, N-(3-methoxypropyl)-1-(pyridin-3-ylsulfonyl)-2,3-dihydro-1H-pyrido[2,3-b][1,4]oxazine-7-carboxamide] has an EC50 [1, 4] of over 30 µM and an EC50 [2] of over 30 µM.
With `O=C(NC1CCCC1)c1noc(-c2cnc3c(c2)N(S(=O)(=O)c2ccc(F)cc2)CCO3)n1` [Example 213, N-cyclopentyl-5-(1-(4-fluorophenylsulfonyl)-2,3-dihydro-1H-pyrido[2,3-b][1,4]oxazin-7-yl)-1,2,4-oxadiazole-3-carboxamide] the “inverse agonist mark, human CB2 receptor” value ([1]; asterisk at the compound number) was 175, 178, 179, 181, 198, 204, 205, 213*, 214, 215, 216, 219, 220,.
In the case of `CC(C)(C)NC(=O)c1cnc2c(c1)N(S(=O)(=O)N1CCc3ccccc3C1)CCO2` [Example 188, N-tert-butyl-1-(3,4-dihydroisoquinolin-2(1H)-ylsulfonyl)-2,3-dihydro-1H-pyrido[2,3-b][1,4]oxazine-7-carboxamide], the EC50 [1] is reported as over 30 µM and the “inverse agonist mark, human CB1 receptor” value [2] is reported as 152, 154, 155, 165, 184, 185, 187, 188*, 212, 214, 217, 227.
Molecule `CC(C)(CO)NC(=O)c1cnc2c(c1)N(S(=O)(=O)N1CC(F)(F)C1)CCO2` [Example 195, 1-(3,3-difluoroazetidin-1-ylsulfonyl)-N-(1-hydroxy-2-methylpropan-2-yl)-2,3-dihydro-1H-pyrido[2,3-b][1,4]oxazine-7-carboxamide] has an EC50 [1] of over 30 µM.
In the case of `CCC(C)(C)NC(=O)c1cnc2c(c1)N(S(=O)(=O)N1CCc3ccccc3C1)CCO2` [Example 189, 1-(3,4-dihydroisoquinolin-2(1H)-ylsulfonyl)-N-tert-pentyl-2,3-dihydro-1H-pyrido[2,3-b][1,4]oxazine-7-carboxamide], the EC50 [1] is reported as over 30 µM and the EC50 [2] is reported as over 30 µM.
For `CC(C)(C)NC(=O)c1cnc2c(c1)N(S(=O)(=O)c1ccccc1OC(F)(F)F)CCO2` [Example 84, N-tert-butyl-1-(2-(trifluoromethoxy)phenyl-sulfonyl)-2,3-dihydro-1H-pyrido[2,3-b][1,4]oxazine-7-carboxamide], the EC50 [1, 4] was over 30 µM and the EC50 [2] was over 30 µM.
`O=S(=O)(c1ccc(C(F)(F)F)cc1)N1CCOc2ncc(-c3ncc(-c4ccccc4)[nH]3)cc21` [Example 226, 7-(5-phenyl-1H-imidazol-2-yl)-1-(4-(trifluoromethyl)phenylsulfonyl)-2,3-dihydro-1H-pyrido[2,3-b][1,4]oxazine] showed an EC50 [1, 4] of over 30 µM.
`Cc1cc(S(=O)(=O)N2CCOc3ncc(C(=O)NC(C)(C)C)cc32)c(C)s1` [Example 91, N-tert-butyl-1-(2,5-dimethylthiophen-3-ylsulfonyl)-2,3-dihydro-1H-pyrido[2,3-b][1,4]oxazine-7-carboxamide] gave an EC50 [1] of over 30 µM and an EC50 [2] of over 30 µM.
With `O=C(c1cnc2c(c1)N(S(=O)(=O)c1ccc(Cl)c(Cl)c1)CCO2)N1CCN(c2ccccn2)CC1` [Example 117] the EC50 [1] was over 30 µM and the “inverse agonist mark, human CB1 receptor” value [2] was 11, 24, 25, 42, 43*, 67, 117*, 121, 124, 131, 132, 148, 150, 151,.
In the case of `CC(C)(C)NC(=O)c1cnc2c(c1)N(S(=O)(=O)Cc1ccc(C(F)(F)F)cc1)CCO2` [Example 63, N-tert-butyl-1-(4-(trifluoromethyl)benzylsulf-onyl)-2,3-dihydro-1H-pyrido[2,3-b][1,4]oxazine-7-carboxamide], the EC50 [1, 4] is reported as over 30 µM and the EC50 [2] is reported as over 30 µM.
`O=C(c1cnc2c(c1)N(S(=O)(=O)c1ccc(Cl)c(Cl)c1)CCO2)N1CC(O)C1` [Example 125, (1-(3,4-dichlorophenyl-sulfonyl)-2,3-dihydro-1H-pyrido[2,3-b][1,4]oxazin-7-yl)(3-hydroxyazetidin-1-yl)methanone] gave an EC50 [1, 4] of over 30 µM and an EC50 [2] of over 30 µM.
Work on `CC1(C)CNC(c2cnc3c(c2)N(S(=O)(=O)c2ccc(C(F)(F)F)cc2)CCO3)=N1` [Example 224, 7-(4,4-dimethyl-4,5-dihydro-1H-imidazol-2-yl)-1-(4-(trifluoromethyl)phenylsulfonyl)-2,3-dihydro-1H-pyrido[2,3-b][1,4]oxazine] yielded an EC50 [1, 4] of over 30 µM and an EC50 [2] of over 30 µM.
For `Cc1cccc(CS(=O)(=O)N2CCOc3ncc(C(=O)NC(C)(C)C)cc32)c1` [Example 81, N-tert-butyl-1-(3-methylbenzylsulfonyl)-2,3-dihydro-1H-pyrido[2,3-b][1,4]oxazine-7-carboxamide], the EC50 [1, 4] was over 30 µM and the EC50 [2] was over 30 µM.
For `Cn1cnc(S(=O)(=O)N2CCOc3ncc(C(=O)NC(C)(C)C)cc32)c1` [Example 30, N-tert-butyl-1-(1-methyl-1H-imidazol-4-ylsulfonyl)-2,3-dihydro-1H-pyrido-[2,3-b][1,4]oxazine-7-carboxamide], the EC50 [1, 4] was over 30 µM and the EC50 [2] was over 30 µM.
`CC(C)(C)NC(=O)c1cnc2c(c1)N(S(=O)(=O)N1CCC(c3ccccc3)CC1)CCO2` [Example 158, N-tert-butyl-1-(4-phenylpiperidin-1-ylsulfonyl)-2,3-dihydro-1H-pyrido[2,3-b][1,4]oxazine-7-carboxamide] gave an EC50 [1] of over 30 µM and an EC50 [2] of over 30 µM.
With `CC(C)(C)NC(=O)c1cnc2c(c1)N(S(=O)(=O)c1cc(Cl)cc(Cl)c1)CCO2` [Example 53, N-tert-butyl-1-(3,5-dichlorophenylsulfonyl)-2,3-dihydro-1H-pyrido[2,3-b][1,4]oxazine-7-carboxamide] the EC50 [1] was over 30 µM and the EC50 [2] was over 30 µM.
Work on `CCS(=O)(=O)N1CCOc2ncc(C(=O)NC(C)(C)C)cc21` [Example 80, N-tert-butyl-1-(ethylsulfonyl)-2,3-dihydro-1H-pyrido[2,3-b][1,4]oxazine-7-carboxamide] yielded an EC50 [1] of over 30 µM and an EC50 [2] of over 30 µM.
Molecule `CC(C)(C)NC(=O)c1cnc2c(c1)N(S(=O)(=O)c1cccc3ccccc13)CCO2` [Example 87, N-tert-butyl-1-(naphthalen-1-ylsulfonyl)-2,3-dihydro-1H-pyrido[2,3-b][1,4]oxazine-7-carboxamide] has an EC50 [1] of over 30 µM and an EC50 [2] of over 30 µM.
Work on `CCC(C)(C)NC(=O)c1cnc2c(c1)N(S(=O)(=O)N1CCC(c3ccccc3)CC1)CCO2` [Example 159, N-tert-pentyl-1-(4-phenylpiperidin-1-ylsulfonyl)-2,3-dihydro-1H-pyrido[2,3-b][1,4]oxazine-7-carboxamide] yielded an EC50 [1] of over 30 µM and an EC50 [2] of over 30 µM.
`CC(C)(CO)NC(=O)c1cnc2c(c1)N(S(=O)(=O)N1CCc3ccccc3C1)CCO2` [Example 190, 1-(3,4-dihydroisoquinolin-2(1H)-ylsulfonyl)-N-(1-hydroxy-2-methylpropan-2-yl)-2,3-dihydro-1H-pyrido[2,3-b][1,4]oxazine-7-carboxamide] gave an EC50 [1] of over 30 µM and an EC50 [2] of over 30 µM.
`CC(C)(CO)CNC(=O)c1cnc2c(c1)N(S(=O)(=O)N1CCC(c3ccccc3)CC1)CCO2` [Example 161, N-(3-hydroxy-2,2-dimethylpropyl)-1-(4-phenylpiperidin-1-ylsulfonyl)-2,3-dihydro-1H-pyrido[2,3-b][1,4]oxazine-7-carboxamide] showed an EC50 [1] of over 30 µM and an EC50 [2] of over 30 µM.
`Cn1cnc(S(=O)(=O)N2CCOc3ncc(C(=O)NC4CCCC4)cc32)c1` [Example 31, N-cyclopentyl-1-(1-methyl-1H-imidazol-4-ylsulfonyl)-2,3-dihydro-1H-pyrido[2,3-b][1,4] oxazine-7-carboxamide] gave an EC50 [1, 4] of over 30 µM and an EC50 [2] of over 30 µM.
`CC(C)(C)NC(=O)c1cnc2c(c1)N(S(=O)(=O)c1cccc(C(F)(F)F)c1)CCO2` [Example 83, N-tert-butyl-1-(3-(trifluoromethyl)phenylsulf-onyl)-2,3-dihydro-1H-pyrido[2,3-b][1,4]oxazine-7-carboxamide] was tested, and the EC50 [2] was over 30 µM and the EC50 [3] was at most 0.03 µM.
Work on `Cc1csc(S(=O)(=O)N2CCOc3ncc(C(=O)NC(C)(C)C)cc32)c1` [Example 92, N-tert-butyl-1-(4-methylthiophen-2-ylsulfonyl)-2,3-dihydro-1H-pyrido[2,3-b][1,4]oxazine-7-carboxamide] yielded an EC50 [2] of over 30 µM and an EC50 [3] of at most 0.03 µM.
`CCOC(=O)C1(NC(=O)c2cnc3c(c2)N(S(=O)(=O)c2ccc(C(F)(F)F)cc2)CCO3)CCC1` [Example 71, ethyl 1-(1-(4-(trifluoro-methyl)phenylsulfonyl)-2,3-dihydro-1H-pyrido-[2,3-b][1,4]oxazine-7-carboxamido)cyclo-butanecarboxylate] was tested, and the EC50 [2] was over 30 µM and the EC50 [3] was at most 0.03 µM.
`CC(C)(C)NC(=O)c1cnc2c(c1)N(S(=O)(=O)c1cccc(F)c1)CCO2` [Example 20, N-tert-butyl-1-(3-fluorophenylsulfonyl)-2,3-dihydro-1H-pyrido[2,3-b][1,4]oxazine-7-carboxamide] was tested, and the EC50 [2] was over 30 µM and the EC50 [3] was at most 0.03 µM.
With `O=C(N[C@@H]1CCC[C@H]1O)c1cnc2c(c1)N(S(=O)(=O)c1ccc(Cl)c(Cl)c1)CCO2` [Example 133, 1-(3,4-dichlorophenyl-sulfonyl)-N-((1R,2R)-2-hydroxycyclopentyl)-2,3-dihydro-1H-pyrido[2,3-b][1,4]oxazine-7-carboxamide] the EC50 [2] was over 30 µM and the EC50 [3] was at most 0.03 µM.
With `COCCN(C(=O)c1cnc2c(c1)N(S(=O)(=O)c1ccc(C(F)(F)F)cc1)CCO2)C(C)(C)C` [Example 43, N-tert-butyl-N-(2-methoxyethyl)-1-(4-(trifluoromethyl)phenylsulf-onyl)-2,3-dihydro-1H-pyrido[2,3-b][1,4]oxazine-7-carboxamide] the “inverse agonist mark, human CB1 receptor” value [2] was 11, 24, 25, 42, 43*, 67, 117*, 121, 124, 131, 132, 148, 150, 151, and the EC50 [3] was at most 0.03 µM.

From patent US7960377B2 (priority 2008, dated 2011)
